Columns and labels:
[1] = target: T1, Free fatty acid receptor 4 (Homo sapiens, UniProt Q5NUL3); test: Agonist activity at human GPR120 short isoform expressed in CHOK1 cells assessed as beta-arrestin recruitment after 90 mins by luminescence assay; type: cell-based, CHO-K1
T1 sequence (Q5NUL3 whole entry): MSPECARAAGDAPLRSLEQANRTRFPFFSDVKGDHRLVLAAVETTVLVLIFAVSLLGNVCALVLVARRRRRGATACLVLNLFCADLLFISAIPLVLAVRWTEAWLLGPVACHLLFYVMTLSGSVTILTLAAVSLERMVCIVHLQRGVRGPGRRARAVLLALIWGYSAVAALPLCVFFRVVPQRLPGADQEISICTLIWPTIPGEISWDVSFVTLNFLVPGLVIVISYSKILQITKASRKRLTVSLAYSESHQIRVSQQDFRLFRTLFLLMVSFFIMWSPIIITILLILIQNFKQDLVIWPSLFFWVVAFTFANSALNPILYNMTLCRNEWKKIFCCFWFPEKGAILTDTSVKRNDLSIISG

[2] = Clearance in rat plasma at 0.1 mg/kg administered as iv casette dose by LC/MS/MS analysis; type: ADME, organism-based
[3] = Volume of distribution at steady state in rat plasma at 0.1 mg/kg administered as iv casette dose by LC/MS/MS analysis; type: ADME, organism-based; settings: read-out: Vdss
Mus musculus = test: Glucose lowering effect in C57BL/6 transverse aortic constriction mouse assessed as reduction in blood glucose pretreated for 60 mins via oral gavage followed by dextrose challenge measured up to 120 mins post glucose challenge by OGTT; type: functional
[4] = Plasma concentration in C57BL/6 transverse aortic constriction mouse at 10 mg/kg, po via gavage measured at 3 hrs; type: ADME, organism-based; settings: C57BL/6, mouse
[5] = Plasma concentration in wild type C57BL/6 transverse aortic constriction mouse harboring GPR120 at 150 mg/kg, po measured at 3 hrs; type: ADME, organism-based; settings: C57BL/6, mouse
[6] = target: T2, Free fatty acid receptor 4 (Mus musculus, UniProt Q7TMA4); test: Agonist activity at mouse GPR120 expressed in human U2OS cells assessed as beta-arrestin recruitment after 90 mins by luminescence assay; type: cell-based
T2 sequence (Q7TMA4 whole entry): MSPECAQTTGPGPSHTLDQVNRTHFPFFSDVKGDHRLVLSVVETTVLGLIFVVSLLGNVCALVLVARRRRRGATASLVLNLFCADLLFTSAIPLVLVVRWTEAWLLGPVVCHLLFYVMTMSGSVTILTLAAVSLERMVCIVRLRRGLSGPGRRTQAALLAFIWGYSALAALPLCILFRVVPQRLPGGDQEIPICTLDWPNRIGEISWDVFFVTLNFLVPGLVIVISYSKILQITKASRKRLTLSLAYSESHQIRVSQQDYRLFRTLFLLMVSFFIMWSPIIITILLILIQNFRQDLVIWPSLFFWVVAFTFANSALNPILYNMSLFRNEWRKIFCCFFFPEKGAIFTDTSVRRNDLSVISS

[7] = target: Sodium channel protein type 5 subunit alpha (Homo sapiens, UniProt Q14524); test: Inhibition of Nav1.5 (unknown origin)
Cytochrome P450 3A4 = Cytochrome P450 3A4 (Homo sapiens, UniProt P08684); test: Inhibition of human CYP3A4; type: ADME
Cytochrome P450 2D6 = Cytochrome P450 2D6 (Homo sapiens, UniProt P10635); test: Inhibition of human CYP2D6; type: ADME
[8] = target: T3, Peroxisome proliferator-activated receptor alpha (Homo sapiens) (UniProt Q07869); test: Activity at PPARalpha (unknown origin)
T3 sequence (whole entry): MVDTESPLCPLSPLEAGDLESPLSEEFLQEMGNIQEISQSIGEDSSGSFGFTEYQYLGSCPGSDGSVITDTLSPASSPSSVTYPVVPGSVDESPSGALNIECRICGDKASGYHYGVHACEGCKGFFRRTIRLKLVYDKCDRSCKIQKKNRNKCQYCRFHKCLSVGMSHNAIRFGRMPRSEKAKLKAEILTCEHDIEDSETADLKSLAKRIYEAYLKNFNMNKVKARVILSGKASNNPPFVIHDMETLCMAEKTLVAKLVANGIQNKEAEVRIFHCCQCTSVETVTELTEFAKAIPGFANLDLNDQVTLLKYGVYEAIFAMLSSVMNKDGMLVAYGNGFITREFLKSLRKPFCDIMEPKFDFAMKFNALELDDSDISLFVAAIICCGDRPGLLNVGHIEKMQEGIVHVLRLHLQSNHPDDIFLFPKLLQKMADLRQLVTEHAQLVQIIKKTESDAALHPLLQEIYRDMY

[9] = AUC in rat plasma at 1 mg/kg, iv by LC/MS/MS analysis; type: ADME, organism-based
[10] = Clearance in rat plasma at 1 mg/kg, iv or 2 mg/kg, po by LC/MS/MS analysis; type: ADME, organism-based
[11] = Volume of distribution at steady state in rat plasma at 1 mg/kg, iv or 2 mg/kg, po by LC/MS/MS analysis; type: ADME, organism-based; settings: read-out: Vdss
[12] = Protein binding in rat plasma at 1 mg/kg, iv or 2 mg/kg, po by LC/MS/MS analysis; type: ADME, organism-based; settings: read-out: PPB (converted)
[13] = Intrinsic clearance in rat plasma at 1 mg/kg, iv or 2 mg/kg, po by LC/MS/MS analysis; type: ADME, organism-based; settings: in vivo
[14] = Volume of distribution at steady state in mouse plasma at 2 mg/kg, iv or 30 mg/kg, po by LC/MS/MS analysis; type: ADME, organism-based; settings: read-out: Vdss
[15] = Clearance in rhesus monkey plasma at 0.5 mg/kg, iv or 1 mg/kg, po by LC/MS/MS analysis; type: ADME, organism-based, Macaca mulatta
[16] = Volume of distribution at steady state in rhesus monkey plasma at 0.5 mg/kg, iv or 1 mg/kg, po by LC/MS/MS analysis; type: ADME, organism-based, Macaca mulatta; settings: read-out: Vdss
[17] = Mean residence time in rhesus monkey plasma at 0.5 mg/kg, iv or 1 mg/kg, po by LC/MS/MS analysis; type: ADME, organism-based, Macaca mulatta
[18] = Oral bioavailability in rhesus monkey plasma at 1 mg/kg by LC/MS/MS analysis; type: ADME, organism-based, Macaca mulatta
[19] = Intrinsic clearance in rhesus monkey plasma at 0.5 mg/kg, iv or 1 mg/kg, po by LC/MS/MS analysis; type: ADME, organism-based, Macaca mulatta; settings: in vivo

Cytochrome P450 3A4, sequence (P08684 whole entry): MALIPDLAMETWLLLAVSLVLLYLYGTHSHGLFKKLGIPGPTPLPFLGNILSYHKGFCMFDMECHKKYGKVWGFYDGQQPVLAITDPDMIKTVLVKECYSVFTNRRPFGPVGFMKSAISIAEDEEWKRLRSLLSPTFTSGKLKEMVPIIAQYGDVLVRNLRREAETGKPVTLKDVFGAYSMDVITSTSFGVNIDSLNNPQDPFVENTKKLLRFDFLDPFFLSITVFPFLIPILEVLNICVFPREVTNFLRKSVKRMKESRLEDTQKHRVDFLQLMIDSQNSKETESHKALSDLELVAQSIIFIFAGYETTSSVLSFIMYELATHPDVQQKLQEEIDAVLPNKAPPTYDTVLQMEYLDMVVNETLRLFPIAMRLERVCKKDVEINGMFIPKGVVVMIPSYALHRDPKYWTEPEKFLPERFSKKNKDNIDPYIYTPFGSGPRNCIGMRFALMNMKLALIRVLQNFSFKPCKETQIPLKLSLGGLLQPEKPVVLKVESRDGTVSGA
Cytochrome P450 2D6, sequence (P10635 whole entry): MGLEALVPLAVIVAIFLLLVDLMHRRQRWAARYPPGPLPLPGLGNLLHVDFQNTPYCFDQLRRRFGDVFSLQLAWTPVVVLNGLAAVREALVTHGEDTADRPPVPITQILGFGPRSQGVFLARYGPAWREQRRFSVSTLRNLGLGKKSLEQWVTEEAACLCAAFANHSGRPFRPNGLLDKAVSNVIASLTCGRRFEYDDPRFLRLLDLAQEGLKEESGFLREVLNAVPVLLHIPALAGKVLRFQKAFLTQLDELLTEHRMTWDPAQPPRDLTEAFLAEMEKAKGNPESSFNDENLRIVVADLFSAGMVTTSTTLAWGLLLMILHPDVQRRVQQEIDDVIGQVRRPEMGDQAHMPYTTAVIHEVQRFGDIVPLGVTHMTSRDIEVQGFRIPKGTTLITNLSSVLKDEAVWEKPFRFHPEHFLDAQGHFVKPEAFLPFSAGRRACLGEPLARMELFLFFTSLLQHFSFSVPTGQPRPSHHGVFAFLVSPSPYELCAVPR
Sodium channel protein type 5 subunit alpha, sequence (Q14524 whole entry): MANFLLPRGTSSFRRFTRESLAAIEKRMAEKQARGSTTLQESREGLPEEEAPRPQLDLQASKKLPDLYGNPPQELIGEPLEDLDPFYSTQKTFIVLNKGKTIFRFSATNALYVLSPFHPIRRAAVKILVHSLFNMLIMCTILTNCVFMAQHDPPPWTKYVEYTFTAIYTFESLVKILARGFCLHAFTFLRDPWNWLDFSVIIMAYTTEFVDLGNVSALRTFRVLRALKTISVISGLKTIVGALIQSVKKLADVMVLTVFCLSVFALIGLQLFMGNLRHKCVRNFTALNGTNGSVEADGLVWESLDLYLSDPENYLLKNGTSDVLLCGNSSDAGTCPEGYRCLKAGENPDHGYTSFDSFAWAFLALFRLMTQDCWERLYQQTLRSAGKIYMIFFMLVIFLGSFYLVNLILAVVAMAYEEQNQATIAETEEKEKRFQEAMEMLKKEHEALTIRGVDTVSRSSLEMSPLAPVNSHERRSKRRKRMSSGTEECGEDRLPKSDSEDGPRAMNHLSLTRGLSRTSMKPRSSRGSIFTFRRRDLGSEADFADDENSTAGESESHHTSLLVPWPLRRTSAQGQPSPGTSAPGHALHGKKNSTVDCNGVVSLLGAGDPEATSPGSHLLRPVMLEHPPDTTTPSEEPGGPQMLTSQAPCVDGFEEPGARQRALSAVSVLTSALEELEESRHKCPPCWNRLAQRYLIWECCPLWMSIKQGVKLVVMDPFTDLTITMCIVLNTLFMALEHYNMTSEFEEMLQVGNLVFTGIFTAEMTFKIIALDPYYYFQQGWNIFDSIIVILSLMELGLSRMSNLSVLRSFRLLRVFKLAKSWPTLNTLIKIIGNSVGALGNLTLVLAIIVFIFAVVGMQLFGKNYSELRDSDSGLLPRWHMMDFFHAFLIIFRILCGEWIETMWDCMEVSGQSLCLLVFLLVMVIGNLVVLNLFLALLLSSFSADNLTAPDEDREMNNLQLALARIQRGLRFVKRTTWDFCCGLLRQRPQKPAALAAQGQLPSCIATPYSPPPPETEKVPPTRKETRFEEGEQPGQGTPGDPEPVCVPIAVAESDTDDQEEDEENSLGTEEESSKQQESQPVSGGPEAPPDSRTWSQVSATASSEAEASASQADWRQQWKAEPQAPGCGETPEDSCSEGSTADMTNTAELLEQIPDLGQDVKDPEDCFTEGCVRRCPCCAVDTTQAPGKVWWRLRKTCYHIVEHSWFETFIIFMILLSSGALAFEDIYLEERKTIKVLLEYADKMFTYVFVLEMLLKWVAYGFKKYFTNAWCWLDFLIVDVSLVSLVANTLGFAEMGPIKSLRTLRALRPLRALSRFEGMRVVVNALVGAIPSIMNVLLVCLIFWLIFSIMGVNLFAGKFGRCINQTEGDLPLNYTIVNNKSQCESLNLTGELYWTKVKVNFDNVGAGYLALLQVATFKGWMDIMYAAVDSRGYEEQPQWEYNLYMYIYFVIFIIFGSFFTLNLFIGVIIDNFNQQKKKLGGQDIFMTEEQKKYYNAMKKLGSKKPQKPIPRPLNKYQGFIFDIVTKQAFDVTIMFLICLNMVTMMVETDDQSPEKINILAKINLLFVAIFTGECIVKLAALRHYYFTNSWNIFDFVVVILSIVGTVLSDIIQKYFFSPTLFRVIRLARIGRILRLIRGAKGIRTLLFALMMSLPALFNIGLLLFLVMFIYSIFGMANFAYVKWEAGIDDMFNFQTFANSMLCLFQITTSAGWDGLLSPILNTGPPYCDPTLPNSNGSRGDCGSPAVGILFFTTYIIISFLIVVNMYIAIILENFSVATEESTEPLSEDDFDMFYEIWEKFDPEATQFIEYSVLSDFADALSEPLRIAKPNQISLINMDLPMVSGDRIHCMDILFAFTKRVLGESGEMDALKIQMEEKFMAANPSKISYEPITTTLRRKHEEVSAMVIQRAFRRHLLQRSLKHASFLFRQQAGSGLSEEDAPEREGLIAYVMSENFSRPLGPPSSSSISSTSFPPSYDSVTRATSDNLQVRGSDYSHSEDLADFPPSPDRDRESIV

## CO[C@H]1C[C@H](Oc2cc(F)c(F)c(-c3ccc4c(c3)CC[C@H](CCC(=O)O)O4)n2)C1
[1]
  EC50: 0.024 µM
[2]
  clearance: 1.3 mL/min/kg
[3]
  Vd: 0.24 L/kg
Mus musculus
  Activity: Dose-dependent effect
Mus musculus; C57BL/6, Blood, read-out: MED
  minimal effective dose: 10 mg/kg
[4]
  concentration at 3 h: 1.17 µM
[5]
  concentration at 3 h: 43.9 µM
[6]
  EC50: 0.0068 µM
[7]
  IC50: 27 µM
Cytochrome P450 3A4
  IC50: > 50 µM
Cytochrome P450 2D6
  IC50: > 50 µM
[8]
  Activity: > 10 µM
[9]
  AUC: 35.9 µM·h
[10]
  clearance: 1.1 mL/min/kg
[11]
  Vd: 0.3 L/kg
[12]
  fraction unbound: 0.0024
[13]
  CL: 470 mL/min/kg
[14]
  Vd: 1.4 L/kg
[15]
  clearance: 0.33 mL/min/kg
[16]
  Vd: 0.27 L/kg
[17]
  MRT: 13.5 h
[18]
  bioavailability: 82%
[19]
  CL: 150 mL/min/kg
